Data from ChEMBL document CHEMBL4706610, “Hydroxypyridinone-Based Iron Chelators with Broad-Ranging Biological Activities” (J Med Chem, 2020).
≈ marks a conversion by molar mass, not a printed value.

How the values were obtained:
Acetylcholinesterase [1] = biological target: T1, Acetylcholinesterase (Electrophorus electricus, UniProt O42275); experiment: Inhibition of electric eel AChE using acetylthiocholine iodide as substrate preincubated for 15 mins followed by substrate addition and measured for 5 mins by Ellman's method
T1 sequence (O42275 whole entry): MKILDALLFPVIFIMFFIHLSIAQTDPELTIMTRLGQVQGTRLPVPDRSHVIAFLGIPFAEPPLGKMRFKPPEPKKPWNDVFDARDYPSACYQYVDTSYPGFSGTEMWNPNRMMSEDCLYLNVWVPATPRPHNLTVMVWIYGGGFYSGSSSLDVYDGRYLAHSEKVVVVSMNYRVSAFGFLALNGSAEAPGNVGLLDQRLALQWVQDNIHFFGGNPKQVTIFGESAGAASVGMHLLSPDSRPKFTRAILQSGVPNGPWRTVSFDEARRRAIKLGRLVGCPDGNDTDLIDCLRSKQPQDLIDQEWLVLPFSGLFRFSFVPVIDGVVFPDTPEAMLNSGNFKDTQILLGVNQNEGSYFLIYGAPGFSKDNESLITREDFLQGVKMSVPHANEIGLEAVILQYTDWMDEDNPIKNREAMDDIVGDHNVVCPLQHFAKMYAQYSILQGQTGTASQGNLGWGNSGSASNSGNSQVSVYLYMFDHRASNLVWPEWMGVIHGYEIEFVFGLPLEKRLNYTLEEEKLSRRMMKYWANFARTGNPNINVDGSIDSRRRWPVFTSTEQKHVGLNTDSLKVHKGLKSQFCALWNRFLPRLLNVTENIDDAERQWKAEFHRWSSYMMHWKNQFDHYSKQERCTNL

Pseudomonas aeruginosa = experiment: Antibacterial activity against Pseudomonas aeruginosa incubated for 2 hrs followed by sterilized TSB addition and measured after 24 hrs by visual inspection; type: functional; conditions: time 26 hrs
[2] = Binding affinity to iron assessed as pFe3+ at pH 7.45
Rattus norvegicus [3] = experiment: Iron scavenging activity in 59Fe-ferritin-loaded rat assessed as iron mobilization efficacy at 450 umol/kg, po dosed 1 hr after 59Fe-ferritin injection and measured 24 hrs after 59Fe-ferritin injection by gamma counting method relative to control; type: functional; conditions: dose 450 µmol/kg; time 23 hrs
[4] = Octanol-buffer partition coefficient, logP of the compound at pH 7.4 by shake flask method; type: physicochemical
Plasmodium falciparum [5] = experiment: Antiplasmodial activity against Plasmodium falciparum NF54 treated for 96 hrs with replacement of growth medium once a day for 4 days; type: functional, organism-based; conditions: NF54, 96 h
Staphylococcus aureus = experiment: Protection against Staphylococcus aureus Smith infected in sc dosed mouse administered 1 hr post infection and measured at 7 days post infection by Litchfield-Wilcoxon method; type: functional; conditions: 168 h, time 7 day
[6] = Binding affinity to iron assessed as pFe3+ at pH 7.4
Rattus norvegicus [7] = experiment: Iron scavenging activity in 59Fe-ferritin-loaded Wistar rat assessed as iron mobilization efficacy at 450 umol/kg, po dosed 1 hr after 59Fe-ferritin injection and measured 24 hrs after 59Fe-ferritin injection by gamma counting method relative to control; type: functional; conditions: dose 450 µmol/kg
[8] = test system: Human immunodeficiency virus 1; experiment: Antiviral activity against HIV1 BaL infected in human peripheral blood lymphocytes assessed as reduction in p24 production incubated for 5 days by ELISA; type: functional, organism-based; conditions: Human immunodeficiency virus 1, BaL, PBL, 120 h
[9] = Binding affinity to iron assessed as pFe3+
[10] = Binding affinity to Fe3+ assessed as binding constant
[11] = Antioxidant activity assessed as DPPH radical scavenging activity incubated for 30 mins by absorbance method; type: functional
Acetylcholinesterase [12] = biological target: T1, Acetylcholinesterase; experiment: Inhibition of electric eel AChE using acetylthiocholine iodide as substrate preincubated for 15 mins followed by substrate addition and measured for 5 mins by Ellman's reagent based UV-Vis spectrophotometric method
[13] = biological target: T2, Amyloid-beta precursor protein (Homo sapiens, UniProt P05067); experiment: Inhibition of self-induced amyloid beta (1 to 42) (unknown origin) aggregation measured after 24 hrs by ThT fluorescence assay relative to control; conditions: concentration not given here
T2 sequence (P05067 whole entry): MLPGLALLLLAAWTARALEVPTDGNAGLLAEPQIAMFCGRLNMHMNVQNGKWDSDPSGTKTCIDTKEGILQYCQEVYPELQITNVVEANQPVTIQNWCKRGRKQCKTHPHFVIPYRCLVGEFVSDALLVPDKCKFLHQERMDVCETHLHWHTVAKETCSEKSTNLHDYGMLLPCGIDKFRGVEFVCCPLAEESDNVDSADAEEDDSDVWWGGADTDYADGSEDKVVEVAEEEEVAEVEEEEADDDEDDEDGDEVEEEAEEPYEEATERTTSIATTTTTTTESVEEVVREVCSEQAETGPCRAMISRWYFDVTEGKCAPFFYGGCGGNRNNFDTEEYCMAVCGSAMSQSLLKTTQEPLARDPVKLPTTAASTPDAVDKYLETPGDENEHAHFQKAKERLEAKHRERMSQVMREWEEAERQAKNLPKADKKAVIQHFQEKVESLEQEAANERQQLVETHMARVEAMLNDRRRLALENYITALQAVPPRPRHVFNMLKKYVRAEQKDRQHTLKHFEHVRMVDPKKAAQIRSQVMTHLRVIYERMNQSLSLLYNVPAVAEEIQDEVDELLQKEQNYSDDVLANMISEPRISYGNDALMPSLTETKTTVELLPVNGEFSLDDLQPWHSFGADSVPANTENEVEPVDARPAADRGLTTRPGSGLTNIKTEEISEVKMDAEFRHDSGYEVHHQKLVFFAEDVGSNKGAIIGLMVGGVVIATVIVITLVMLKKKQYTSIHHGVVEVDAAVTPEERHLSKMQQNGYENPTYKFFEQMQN

[14] = Antioxidant activity assessed as DPPH radical scavenging activity incubated for 30 mins by UV-Vis spectrophotometric method; type: functional
[15] = Binding affinity to iron assessed as pFe3+ at pH 7.4 by spectrophotometric method
[16] = Binding affinity to Fe3+ assessed as pFe by UV-Vis spectrophotometric method
[17] = Octanol/water partition coefficient, log P of the compound shaken for 45 mins and measured after 15 mins; type: physicochemical; conditions: time 60 min
[18] = Electrochemical behavior of the compound assessed as redox potential; type: physicochemical
[19] = Binding affinity to Fe3+ assessed as pFe at by potentiometric/UV-Vis spectrophotometric method
[20] = Binding affinity to Cu2+ assessed as pCu at pH 7.4 by potentiometric/UV-Vis spectrophotometric method
Acetylcholinesterase [21] = biological target: Acetylcholinesterase (Torpedo californica, UniProt P04058); experiment: Inhibition of Torpedo californica AChE using acetylthiocholine iodide as substrate preincubated for 15 mins followed by substrate addition and measured for 5 mins; parameters: species or system Tetronarce californica
Acetylcholinesterase (Torpedo californica, UniProt P04058), sequence (P04058 whole entry): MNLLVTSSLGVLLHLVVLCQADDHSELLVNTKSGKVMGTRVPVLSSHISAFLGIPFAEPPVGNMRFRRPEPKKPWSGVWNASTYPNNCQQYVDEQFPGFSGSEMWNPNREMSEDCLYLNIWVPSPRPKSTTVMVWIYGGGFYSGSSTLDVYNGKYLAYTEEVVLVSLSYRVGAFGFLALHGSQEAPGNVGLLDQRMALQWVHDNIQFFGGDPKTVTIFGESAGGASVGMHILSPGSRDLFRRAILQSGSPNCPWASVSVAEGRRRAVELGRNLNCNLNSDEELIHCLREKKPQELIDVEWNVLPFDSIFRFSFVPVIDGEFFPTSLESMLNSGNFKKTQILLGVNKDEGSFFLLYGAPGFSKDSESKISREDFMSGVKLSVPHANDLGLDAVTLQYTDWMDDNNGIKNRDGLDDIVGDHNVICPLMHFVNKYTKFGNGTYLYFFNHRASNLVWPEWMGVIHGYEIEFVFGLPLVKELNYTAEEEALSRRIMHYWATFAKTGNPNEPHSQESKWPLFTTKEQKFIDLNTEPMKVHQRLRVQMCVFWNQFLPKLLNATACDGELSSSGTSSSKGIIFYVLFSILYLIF

[22] = biological target: T2, Amyloid-beta precursor protein; experiment: Inhibition of human amyloid beta (1 to 42) aggregation incubated for 24 hrs by ThT fluorescence assay; conditions: concentration not given here
Plasmodium falciparum [23] = experiment: Antiplasmodial activity against chloroquine-sensitive Plasmodium falciparum 3D7 incubated for 48 hrs by parasite lactate dehydrogenase assay; type: functional, organism-based; conditions: 3D7, 48 h
Plasmodium falciparum [24] = experiment: Antiplasmodial activity against chloroquine-sensitive Plasmodium falciparum D10 incubated for 48 hrs by parasite lactate dehydrogenase assay; type: functional, organism-based; conditions: D10, 48 h
Plasmodium falciparum [25] = experiment: Antiplasmodial activity against chloroquine-resistant Plasmodium falciparum K1 incubated for 48 hrs by parasite lactate dehydrogenase assay; type: functional, organism-based; conditions: K1, 48 h
Plasmodium falciparum [26] = experiment: Antiplasmodial activity against chloroquine-resistant Plasmodium falciparum Dd2 incubated for 48 hrs by parasite lactate dehydrogenase assay; type: functional, organism-based; conditions: Dd2, 48 h
[27] = Antioxidant activity assessed as ABTS radical scavenging activity by trolox-equivalent antioxidant capacity assay; type: functional
[28] = biological target: T2, Amyloid-beta precursor protein; experiment: Inhibition of self-induced amyloid beta (1 to 42) (unknown origin) aggregation by ThT fluorescence assay
[29] = biological target: T2, Amyloid-beta precursor protein; experiment: Inhibition of self-induced amyloid beta (1 to 42) (unknown origin) aggregation by ThT fluorescence assay relative to control; conditions: concentration not given here

`Cc1c(O)c(=O)ccn1CC(=O)NCCNc1c2c(nc3cc(Cl)ccc13)CCCC2` showed an IC50 (Acetylcholinesterase [1]) of 0.64 µM.
With `CCCCn1ccc(=O)c(O)c1C(=O)NCCCC(CCCNC(=O)c1c(O)c(=O)ccn1CCCC)(CCCNC(=O)c1c(O)c(=O)ccn1CCCC)NC(=O)[C@@H](N)CC(C)C` the MIC (Pseudomonas aeruginosa) was 32 µg/mL (≈ 35.7 µM).
`COCCn1ccc(=O)c(O)c1C(=O)NCCCC(CCCNC(=O)c1c(O)c(=O)ccn1CCOC)(CCCNC(=O)c1c(O)c(=O)ccn1CCOC)NC(=O)[C@@H](N)CC(C)C` gave an MIC (Pseudomonas aeruginosa) of 128 µg/mL (≈ 142 µM).
For `CCC(O)c1c(O)c(=O)cc(C)n1C` (stereo not given), the Activity [2] was 21 and the Efficacy (Rattus norvegicus [3]) was 60.4%.
For `CC(=O)NCCOCCOCCn1ccc(=O)c(O)c1C`, the logD [4] was -2.01.
`C=CCN1C(c2ccccn2)CC(=O)C(C(=O)OC)C1c1ccccn1` (stereo not given) gave an IC50 (Plasmodium falciparum [5]) of 1.4 µM.
`CO/N=C(\C(=O)N[C@@H]1C(=O)N2C(C(=O)[O-])=C(C[n+]3cccc4c3CCC4)CS[C@H]12)c1csc(N)n1` [CEFPIROME] showed an ED50 (Staphylococcus aureus) of 1.5 mg/kg.
`CCn1ccc(=O)c(O)c1C(C)O` (stereo not given) showed an Activity [2] of 21.4 and an Efficacy (Rattus norvegicus [3]) of 54.5%.
`CNC(=O)c1c(O)c(=O)cc(C)n1C` showed an Activity [6] of 21.7, an Efficacy (Rattus norvegicus [7]) of 58.7% and an IC50 [8] of 33.3 µM.
In the case of `O=C(NCCN(CCNC(=O)c1[nH]ccc(=O)c1O)CCNC(=O)c1[nH]ccc(=O)c1O)c1[nH]ccc(=O)c1O`, the Activity [9] is reported as 30.5 and the log Ks [10] is reported as 30.7.
In the case of `Cc1c(OCc2ccccc2)c(=O)ccn1-c1ccc(CC(=O)NCc2ccc(-c3nc4ccccc4s3)cc2)cc1`, the IC50 [11] is reported as > 1000 µM, the IC50 (Acetylcholinesterase [12]) is reported as 13.8 µM and the inhibition [13] is reported as 68.9%.
`Cc1c(O)c(=O)ccn1CC(=O)NCCCNc1c2c(nc3cc(Cl)ccc13)CCCC2` gave an inhibition [13] of 95.2%, an IC50 (Acetylcholinesterase [1]) of 0.86 µM and an EC50 [14] of 1110 µM.
`Cc1c(O)c(=O)ccn1CCCC(=O)NCc1ccc(Cc2nc3ccccc3s2)cc1` showed an Activity [15] of 19.4.
In the case of `CCc1c(O)c(=O)ccn1CCCn1cc(COc2cc3ccccc3oc2=O)nn1`, the Activity [16] is reported as 17.1.
Compound `CCCC(=O)NC(CCCNC(=O)c1c(O)c(=O)ccn1CC)(CCCNC(=O)c1c(O)c(=O)ccn1CC)CCCNC(=O)c1c(O)c(=O)ccn1CC` has an MIC (Pseudomonas aeruginosa) of 32 µg/mL (≈ 41.7 µM).
With `Cc1c(O)c(=O)ccn1C` [DEFERIPRONE] the Activity [9] was 20.4, the logP at 1 h [17] was 0.17 and the Efficacy (Rattus norvegicus [7]) was 13.4%. The IC50 [8] was 102 µM and the Activity [18] was -620 mV.
`Cc1c(O)c(=O)ccn1CC(=O)NCCCCNc1c2c(nc3cc(Cl)ccc13)CCCC2` gave an IC50 (Acetylcholinesterase [1]) of 0.64 µM.
For `CCCCn1ccc(=O)c(O)c1C(=O)NCCCC(CCCNC(=O)c1c(O)c(=O)ccn1CCCC)(CCCNC(=O)c1c(O)c(=O)ccn1CCCC)NC(=O)CCC`, the MIC (Pseudomonas aeruginosa) was 32 µg/mL (≈ 37.6 µM).
Work on `COc1cccc2cc(C(=O)NCCn3ccc(=O)c(O)c3C)oc12` yielded an EC50 [11] of 199 µM, an Activity [19] of 17.3 and an Activity [20] of 6.5. For the same compound, the IC50 (Acetylcholinesterase [21]) was 246 µM and the inhibition [22] was 49.8%.
`CCc1c(OCc2ccccc2)c(=O)ccn1CCCCCCNc1ccnc2cc(Cl)ccc12` gave an IC50 (Plasmodium falciparum [23]) of 0.041 µM, an IC50 (Plasmodium falciparum [24]) of 0.122 µM and an IC50 (Plasmodium falciparum [25]) of 0.089 µM. The IC50 (Plasmodium falciparum [26]) was 0.076 µM.
Compound `O=c1cc(/C=C/c2nc3ccccc3o2)occ1O` has an Activity [27] of 4.29, an IC50 [28] of 7.05 µM and an inhibition [29] of 65%.
Work on `Oc1cccc2cccnc12` [OXYQUINOLINE] yielded an Activity [18] of -150 mV.
`Cc1cc(=O)c(O)c(CO)n1CCCn1cc(COc2ccc3ccc(=O)oc3c2)nn1` showed an Activity [16] of 19.8.
